Experiments:
[1] = molecular target: Cdk9/cyclin T1 (Homo sapiens, UniProt P50750); details: CDK 9/Cyclin T (McClue et al., 2002); cited from earlier work
[2] = tested on: XG-6; assay: Induction of apoptosis by apo2.7 immunostaining; type: cell-based, human
Description: (§1) The induction of apoptosis at day 3 by apo2.7 was investigated by immunostaining.

[3] = tested on: MDN; assay: Induction of apoptosis by apo2.7 immunostaining; type: cell-based, human
Description: as §1

[4] = tested on: XG-1; assay: Induction of apoptosis by apo2.7 immunostaining; type: cell-based, human
Description: as §1

[5] = tested on: multiple myeloma cell lines; assay: Apoptosis by TUNEL, flow cytometry; type: cell-based; details: 30 μM CYC202
Experimental: All cell lines were obtained from the DSMZ (Deutsche Sammlung von Mikroorganismen und Zellkulturen).
Cells were seeded onto 90 mm diameter plates. […] Cells were harvested at various time points after addition of the drug. After washing once in PBS, cells were fixed in ice-cold 70% v/v ethanol and stored for up to 2 weeks at −20° C. Cells were washed twice in PBS +1% w/v BSA to remove fixative and re-suspended in PBS containing 50 μg/ml propidium iodide and 50 μg/ml RnaseA. After incubation at room temperature for 20 min, cells were analysed using flow cytometry.
A Becton Dickinson LSR flow cytometer was used for these studies, in accordance with the manufacturers recommendations. […] Red fluorescence (575±26 nm) was acquired on a linear scale and pulse width analysis was used to exclude cell doublets and aggregates from the analysis. Cells with a DNA content of between 2 n and 4 n were designated as being in G1, S or G2/M phases of the cell cycle, as defined by the level of red fluorescence. […] The number of cells in each cell cycle compartment was expressed as a percentage of the total number of cells present. Analysis of apoptosis was determined using terminal deoxynucleotidyltransferase dUTP nick end labelling (TUNEL) using the APO-DIRECT kit from BD biosciences (catalog number 556381) according to the manufacturer's instructions.

[6] = tested on: RNA polII on Ser-2; assay: Western blotting of RNA pol II phosphorylation, MDN cells; type: cell-based, human; details: 30 μM, seven hours
Description: (§2) The downregulation of Mcl-1 preceded the induction of apoptosis.

[7] = tested on: Mcl-1 mRNA; assay: Real time PCR of Mcl-1 mRNA in LP-1 cells; type: cell-based; details: normalised to 28S rRNA
[8] = tested on: Mcl-1; assay: Western blotting of Mcl-1 expression, MDN cells; type: cell-based, human
Description: as §2

[9] = tested on: Mcl-1; assay: Western blot, Mcl-1 protein levels in myeloma cell lines; type: cell-based
[10] = tested on: RNA polII on Ser-2; assay: Western blotting of RNA pol II phosphorylation, XG-6 cells; type: cell-based, human; details: XG-6, 30 μM, seven hours
Description: as §2

[11] = tested on: RNA polymerase II at the serine 2 position of the CTD; assay: Western blot, RNA polymerase II CTD phosphorylation in LP-1 cells; details: 30 μM CYC202
[12] = tested on: Hdm2; assay: Western blot, Hdm2 levels in myeloma cells; type: cell-based
[13] = tested on: Mcl-1; assay: Western blotting of Mcl-1 expression, XG-6 cells; type: cell-based, human; details: XG-6, 30 μM, seven hours
Description: as §2

[14] = tested on: Mcl-1; assay: Western blotting of Mcl-1 expression, XG-1 cells; type: cell-based, human; details: XG-1, 30 μM, seven hours
Description: as §2

[15] = tested on: RNA polII on Ser-2; assay: Western blotting of RNA pol II phosphorylation, XG-1 cells; type: cell-based, human; details: XG-1, 30 μM, seven hours
Description: as §2

[16] = tested on: non myeloma cell population; assay: Apoptosis in cells taken from a multiple myeloma patient (ex vivo); type: cell-based, human; design: dose or concentration left out as unconfirmed; details: […] μM CYC202, day 2, patient cells ex vivo
Description: (§3) Myeloma cells were identified by their high expression of CD38.
(§4) Myeloma cells were identified by their high expression of CD38. The number of apoptotic cells in the myeloma cell population was of 46% whereas only 4% of the non myeloma cell population was induced on apoptosis.

[17] = tested on: myeloma cell population (high expression of CD38); assay: as above; type: cell-based, human; design: dose or concentration left out as unconfirmed; details: […] μM CYC202, day 2, patient cells ex vivo
Description: as §3, §4

[18] = tested on: CTD of RNA polymerase II; assay: Western blot, phosphorylation of CTD of RNA polymerase II in myeloma cells; type: cell-based; details: 60 mM DRB
Description: Arrow indicates cleaved form indicative of apoptosis.

Cdk9/cyclin T1, sequence (P50750 whole entry, species assumed): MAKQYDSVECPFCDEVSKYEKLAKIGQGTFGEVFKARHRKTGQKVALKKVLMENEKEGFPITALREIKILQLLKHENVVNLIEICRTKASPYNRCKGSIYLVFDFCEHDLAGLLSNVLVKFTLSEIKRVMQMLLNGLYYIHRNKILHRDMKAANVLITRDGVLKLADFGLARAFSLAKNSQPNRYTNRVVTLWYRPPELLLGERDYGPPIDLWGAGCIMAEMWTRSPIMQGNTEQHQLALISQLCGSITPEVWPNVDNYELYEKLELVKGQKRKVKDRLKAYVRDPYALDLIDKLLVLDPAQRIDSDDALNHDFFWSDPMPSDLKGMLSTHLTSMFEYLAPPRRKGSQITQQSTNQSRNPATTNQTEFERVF
Cdk9/cyclin T1, sequence (O60563 whole entry partner, species assumed): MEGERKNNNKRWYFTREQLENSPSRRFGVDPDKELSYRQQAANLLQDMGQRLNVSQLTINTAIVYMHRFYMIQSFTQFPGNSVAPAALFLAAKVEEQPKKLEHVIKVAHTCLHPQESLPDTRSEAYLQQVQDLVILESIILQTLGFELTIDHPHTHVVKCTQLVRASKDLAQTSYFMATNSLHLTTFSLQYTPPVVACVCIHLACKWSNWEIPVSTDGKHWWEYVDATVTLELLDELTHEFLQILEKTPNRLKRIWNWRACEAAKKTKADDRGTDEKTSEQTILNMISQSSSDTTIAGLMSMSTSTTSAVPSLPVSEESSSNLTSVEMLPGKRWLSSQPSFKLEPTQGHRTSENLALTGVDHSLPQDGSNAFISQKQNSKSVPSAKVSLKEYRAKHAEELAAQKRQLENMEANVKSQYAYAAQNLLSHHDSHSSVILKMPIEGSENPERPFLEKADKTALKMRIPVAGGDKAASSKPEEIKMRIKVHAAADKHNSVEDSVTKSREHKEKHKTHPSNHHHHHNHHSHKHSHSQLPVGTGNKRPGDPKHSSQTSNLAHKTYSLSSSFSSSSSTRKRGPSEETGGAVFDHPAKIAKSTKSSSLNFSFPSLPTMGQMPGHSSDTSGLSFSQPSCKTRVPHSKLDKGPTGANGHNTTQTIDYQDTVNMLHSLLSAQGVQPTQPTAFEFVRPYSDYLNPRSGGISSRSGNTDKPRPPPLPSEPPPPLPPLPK

CC[C@H](CO)Nc1nc(NCc2ccccc2)c2ncn(C(C)C)c2n1 (racemic) [roscovitine, 2-[(1-ethyl-2-hydroxyethyl)amino]-6-benzylamine-9-isopropylpurine]
inhibition in vitro [1]: low μM concentrations

CC[C@H](CO)Nc1nc(NCc2ccccc2)c2ncn(C(C)C)c2n1 (single isomer, unassigned) [CYC202, 2-(1-R-hydroxymethylpropylamino)-6-benzylamino-9-isopurine]
% of apoptotic cells after 3 day treatment ([2]; XG-6, 7.5 μM): 4% | % of apoptotic cells after 3 day treatment ([2]; XG-6, 30 μM): 74% | induction of apoptosis at day 3 (apo2.7) ([2]; XG-6, 30 μM): significant and strong induction of apoptosis | % of apoptotic cells after 3 day treatment ([2]; XG-6, […] μM): 15% | % of apoptotic cells after 3 day treatment ([3]; 3 μM): 3% | % of apoptotic cells after 3 day treatment ([3]; 6 μM): 5% | % of apoptotic cells after 3 day treatment ([3]; 12 μM): 41% | induction of apoptosis at day 3 (apo2.7) ([3]; 12 μM): significant and strong induction of apoptosis | induction of apoptosis at day 3 (apo2.7) ([4]; XG1, 30 μM): significant and strong induction of apoptosis | % of apoptotic cells after 3 day treatment ([4]; XG-1, 7.5 μM): 2% | % of apoptotic cells after 3 day treatment ([4]; XG-1, 30 μM): 70% | % of apoptotic cells after 3 day treatment ([4]; XG-1, […] μM): 18% | induction of apoptosis (TUNEL) [5]: rapid apoptosis seen in the majority of cells by eight hours | phosphorylation of RNA polII on Ser-2 [6]: total downregulation | levels of Mcl-1 mRNA by real-time PCR [7]: reduced | Mcl-1 expression ([8]; 30 μM of CYC202, seven hours): total downregulation of Mcl-1 | Mcl-1 expression ([8]; 6 or […] μM of CYC202, seven hours): decrease of Mcl-1 expression | levels of Mcl-1 protein ([9]; all cell lines studied, CYC202 treatment): rapidly reduced in all cell lines, by three hours | phosphorylation of RNA polII on Ser-2 [10]: total downregulation | dephosphorylation of RNA polymerase II at serine 2 of the CTD [11]: rapid dephosphorylation of RNA polymerase II at the serine 2 position of the CTD of RNA pol II, by one and a half hours | levels of Hdm2 ([12]; myeloma cell lines, CYC202 treatment): also reduced | Mcl-1 expression [13]: strong downregulation of Mcl-1 | Mcl-1 expression [14]: strong downregulation of Mcl-1 | phosphorylation of RNA polII on Ser-2 [15]: total downregulation | non myeloma cell population induced on apoptosis [16]: 4% | number of apoptotic cells in the myeloma cell population [17]: 46%

OC[C@H]1O[C@@H](n2cnc3cc(Cl)c(Cl)cc32)[C@H](O)[C@@H]1O [DRB, reference compound]
Mcl-1 levels ([9]; myeloma cells, 60 mM DRB): down regulates | Hdm2 levels ([12]; myeloma cells, 60 mM DRB): down regulates | phosphorylation of the CTD of RNA polymerase II [18]: inhibits phosphorylation

Reference: patent publication US20070287718A1 (priority 2003, published 2007)
